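Tested at 5 concentrations; 48 h exposure; 96-well plates; endpoints linearly interpolated, else capped at highest concentration. The concentration for 50% growth inhibition is given as GI50. At the TGI there is no net growth.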
Legend:
Experiment in all cases: inhibition of tumour cell growth, NCI panel, 48 h
BT-549 breast = tested on: BT-549 breast
PC-3 prostate = tested on: PC-3 prostate
UACC-62 melanoma = tested on: UACC-62 melanoma
COLO 205 colon = tested on: COLO 205 colon
SN12C renal = tested on: SN12C renal
SW-620 colon = tested on: SW-620 colon
SK-MEL-2 melanoma = tested on: SK-MEL-2 melanoma
MALME-3M melanoma = tested on: MALME-3M melanoma
HCT-116 colon = tested on: HCT-116 colon
ACHN renal = tested on: ACHN renal
UACC-257 melanoma = tested on: UACC-257 melanoma
NCI-H460 lung = tested on: NCI-H460 lung
SK-OV-3 ovarian = tested on: SK-OV-3 ovarian
NCI-H226 lung = tested on: NCI-H226 lung
SR leukemia = tested on: SR leukemia
RXF 393 renal = tested on: RXF 393 renal
OVCAR-8 ovarian = tested on: OVCAR-8 ovarian
NCI-H23 lung = tested on: NCI-H23 lung
EKVX NSCLC = tested on: EKVX NSCLC
A549 NSCLC = tested on: A549 NSCLC
CAKI-1 renal = tested on: CAKI-1 renal
DU-145 prostate = tested on: DU-145 prostate
OVCAR-3 ovarian = tested on: OVCAR-3 ovarian
M14 melanoma = tested on: M14 melanoma
IGROV1 ovarian = tested on: IGROV1 ovarian
T-47D breast = tested on: T-47D breast
MDA-MB-231 breast = tested on: MDA-MB-231 breast
SF-539 CNS = tested on: SF-539 CNS

C=CCOC1=CC(=O)c2ccccc2C1=O
GI50 (BT-549 breast): 11.1 µM
TGI (BT-549 breast): 23.2 µM
GI50 (PC-3 prostate): 4.29 µM
TGI (PC-3 prostate): 24.5 µM
GI50 (UACC-62 melanoma): 2.01 µM
TGI (UACC-62 melanoma): 4.05 µM
GI50 (COLO 205 colon): 1.7 µM
TGI (COLO 205 colon): 3.29 µM
GI50 (SN12C renal): 2.75 µM
TGI (SN12C renal): 6.45 µM
GI50 (SW-620 colon): 2.31 µM
TGI (SW-620 colon): 4.84 µM
GI50 (SK-MEL-2 melanoma): 2.34 µM
TGI (SK-MEL-2 melanoma): 4.46 µM
GI50 (MALME-3M melanoma): 1.89 µM
TGI (MALME-3M melanoma): 3.54 µM
GI50 (HCT-116 colon): 2.68 µM
TGI (HCT-116 colon): 6.69 µM
GI50 (ACHN renal): 3.23 µM
TGI (ACHN renal): 11.9 µM
GI50 (UACC-257 melanoma): 1.66 µM
TGI (UACC-257 melanoma): 3.72 µM
GI50 (NCI-H460 lung): 11.6 µM
TGI (NCI-H460 lung): 31.1 µM
GI50 (SK-OV-3 ovarian): 3.59 µM
TGI (SK-OV-3 ovarian): 12.3 µM
GI50 (NCI-H226 lung): 1.88 µM
TGI (NCI-H226 lung): 4.12 µM
GI50 (SR leukemia): 2.24 µM
TGI (SR leukemia): 7.61 µM
GI50 (RXF 393 renal): 2.45 µM
TGI (RXF 393 renal): 6.03 µM
GI50 (OVCAR-8 ovarian): 3.37 µM
TGI (OVCAR-8 ovarian): 12.9 µM
GI50 (NCI-H23 lung): 1.76 µM
TGI (NCI-H23 lung): 3.41 µM
GI50 (EKVX NSCLC): 4.75 µM
TGI (EKVX NSCLC): 26.9 µM
GI50 (A549 NSCLC): 2.12 µM
TGI (A549 NSCLC): 4.85 µM
GI50 (CAKI-1 renal): 15.8 µM
TGI (CAKI-1 renal): 68.7 µM
GI50 (DU-145 prostate): 2.11 µM
TGI (DU-145 prostate): 3.72 µM
GI50 (OVCAR-3 ovarian): 2.51 µM
TGI (OVCAR-3 ovarian): 5.44 µM
GI50 (M14 melanoma): 2.11 µM
TGI (M14 melanoma): 4.35 µM
GI50 (IGROV1 ovarian): 4.34 µM
TGI (IGROV1 ovarian): 13.9 µM
GI50 (T-47D breast): 2.52 µM
TGI (T-47D breast): 7.85 µM
GI50 (MDA-MB-231 breast): 5.27 µM
TGI (MDA-MB-231 breast): > 100 µM
GI50 (SF-539 CNS): 2.37 µM
TGI (SF-539 CNS): 6.01 µM

Source: PubChem BioAssay (NCI)
